Experimental data reported in patent US7902252B2, “Inhibitors of D-amino acid oxidase” (Sepracor, Inc., priority 2007, dated 2011).

Legend:
[1] = target: Human DAAO (Homo sapiens, UniProt P14920); assay: D-Amino Acid Oxidase enzyme assay (D-serine, horseradish peroxidase/Amplex Red coupled fluorescence); format: biochemical; conditions: D-serine 5 mM, pH 7.4
In short: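 D-serine substrate at 5 mM (Km), 50 mM sodium phosphate pH 7.4; H2O2 output coupled via 4 U/mL horseradish peroxidase and 50 μM Amplex Red to resorufin fluorescence. Reaction started with enzyme; H2O2 control checked coupling interference; IC50 from inhibition curves.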

[2] = test system: D-serine levels in the cerebellum; assay: In vivo elevation of D-serine levels in the cerebellum; set-up: species or system Mice (C57BL/6); conditions: mice, intraperitoneal;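 note: Cutoffs are cerebellum D-serine in nmol/g wet tissue weight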
Experimental: […] Animals are sacrificed at either 2 or 6 h post compound administration with an N=3 per time point. At sacrifice, trunk blood is collected into tubes containing potassium EDTA, which are then centrifuged to permit isolation of plasma. The cerebellum is dissected from each animal. Plasma and cerebellum samples are stored at −80° C. until samples are analyzed (LC/MS/MS).

Chain of Human DAAO (P14920 whole entry): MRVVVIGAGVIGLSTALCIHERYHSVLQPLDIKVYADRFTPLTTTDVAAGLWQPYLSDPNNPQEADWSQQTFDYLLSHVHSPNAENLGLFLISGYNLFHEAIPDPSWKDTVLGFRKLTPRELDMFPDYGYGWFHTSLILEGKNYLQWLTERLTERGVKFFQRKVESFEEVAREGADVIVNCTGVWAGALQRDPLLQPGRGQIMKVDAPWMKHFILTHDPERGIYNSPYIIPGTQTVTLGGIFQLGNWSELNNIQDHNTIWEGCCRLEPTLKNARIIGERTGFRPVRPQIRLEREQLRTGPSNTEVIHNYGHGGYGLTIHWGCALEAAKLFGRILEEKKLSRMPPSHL

O=C(O)c1cc2c([nH]1)CCC2Cc1cccc(-c2ccc[nH]2)c1 (single isomer, unassigned) [Compound 93, 4-(3-(1H-pyrrol-2-yl)benzyl)-1,4,5,6-tetrahydrocyclopenta[b]pyrrole-2-carboxylic acid]
IC50 [1]: ≤ 0.1 µM
Cerebellum D-serine at 2 hours ([2]; dose 30 mg/kg): (+) (2.5-4.9 = (+))
Cerebellum D-serine at 6 hours ([2]; dose 30 mg/kg): (+) (2.5-4.9 = (+))

COc1cccc(CC2CCc3[nH]c(C(=O)O)cc32)c1 (single isomer, unassigned) [Compound 68, 4-(3-methoxybenzyl)-1,4,5,6-tetrahydrocyclopenta[b]pyrrole-2-carboxylic acid]
IC50 [1]: ≤ 0.1 µM
Cerebellum D-serine at 2 hours ([2]; dose 30 mg/kg): (+) (2.5-4.9 = (+))
Cerebellum D-serine at 6 hours ([2]; dose 30 mg/kg): (+) (2.5-4.9 = (+))

Cc1cccc(CC2CCc3[nH]c(C(=O)O)cc32)c1 (stereo not drawn) [Compound 70, 4-(3-methylbenzyl)-1,4,5,6-tetrahydrocyclopenta[b]pyrrole-2-carboxylic acid]
IC50 [1]: ≤ 0.1 µM
Cerebellum D-serine at 2 hours ([2]; dose 60 mg/kg): (+) (2.5-4.9 = (+))
Cerebellum D-serine at 6 hours ([2]; dose 60 mg/kg): (+) (2.5-4.9 = (+))

O=C(O)c1cc2c([nH]1)CCC2Cc1ccc2ccccc2c1 (single isomer, unassigned) [Compound 80, 4-(naphthalen-2-ylmethyl)-1,4,5,6-tetrahydrocyclopenta[b]pyrrole-2-carboxylic acid]
IC50 [1]: ≤ 0.1 µM
Cerebellum D-serine at 2 hours ([2]; dose 30 mg/kg): (+) (2.5-4.9 = (+))
Cerebellum D-serine at 6 hours ([2]; dose 30 mg/kg): (+) (2.5-4.9 = (+))

O=C(O)c1cc2c([nH]1)CCC2Cc1ccc(F)cc1F (single isomer, unassigned) [Compound 47, 4-(2,4-difluorobenzyl)-1,4,5,6-tetrahydrocyclopenta[b]pyrrole-2-carboxylic acid]
IC50 [1]: ≤ 0.1 µM
Cerebellum D-serine at 2 hours ([2]; dose 30 mg/kg): (++) (>5 = (++))
Cerebellum D-serine at 6 hours ([2]; dose 30 mg/kg): (+) (2.5-4.9 = (+))

CCCC1CCc2[nH]c(C(=O)O)cc21 (single isomer, unassigned) [Compound 8, 4-propyl-1,4,5,6-tetrahydrocyclopenta[b]pyrrole-2-carboxylic acid]
IC50 [1]: ≤ 0.1 µM
Cerebellum D-serine at 2 hours ([2]; dose 30 mg/kg): (++) (>5 = (++))
Cerebellum D-serine at 6 hours ([2]; dose 30 mg/kg): (+) (2.5-4.9 = (+))
